According to publication PMC5844530, “Fosmetpantotenate (RE-024), a phosphopantothenate replacement therapy for pantothenate kinase-associated neurodegeneration: Mechanism of action and efficacy in nonclinical models” (PLoS ONE, 2018):
Where “and” joins values, the source holds several entries; their conditions need not be identical. Equal entries are not always repeated.

Columns and labels:
[1] = tested on: PanK2 knockdown cells (acetylated tubulin); test: Western blot analysis of acetylated tubulin; format: cell-based, human; settings: for Tubulin Acetylation (fold of control): mean ± SD of 3 independent experiments, β-actin normalization; for Acetyl tubulin level (fold over vehicle): single experiments Exp1 (n=1), Exp2 (n=3), Exp3 (n=3), listed as RE-024; for Acetyl tubulin (quantification) / Acetyl tubulin Normalized (to actin): 1 µM fosmetpantotenate, replicates 1-2
Protocol: After incubation, the cells were lysed in RIPA buffer containing 300 mM NaCl, 10 mM Tris HCl pH 8.0, 10 mM KCl, 1 mM ethylenediaminetetraacetic acid (EDTA), 1% Nonidet-P40, 1% sodium deoxycholate, 0.1% SDS, 1 mM phenylmethanesulfonyl fluoride, and protease inhibitor cocktail (11697498001, Roche, Indianapolis, IN), and sonicated on ice with a Branson 450 sonicator through 2 cycles of ten 2s pulses (1 min pause between cycles). Total protein concentration was determined using a Bio-Rad Protein Assay (500–0006, Biorad, Hercules, CA). Cell extracts were subjected to sodium dodecyl sulfate polyacrylamide gel electrophoresis (SDS-PAGE) analysis (4–12%, NP0335BOX, Life Technologies, Great Island, NY) and transferred to a nitrocellulose membrane (10401396, Whatman, Maidstone, UK). Immunostaining was accomplished by overnight incubation with primary antibodies followed by 1 h of incubation with dye-conjugated secondary antibodies according to the manufacturer’s instructions. Protein detection was achieved using an Infrared Odyssey system (LiCor, Lincoln, NE). Densitometric analysis of western blots was performed using ImageJ software; the statistical significance was determined using a t-test. Actin was used as a normalization probe.

[2] = Stability in simulated gastric fluid; format: in vitro ADME; settings: simulated gi fluid; pH 1.2; 3.2 mg/mL pepsin; 10 μM; read-out: half-life (t½) in simulated gastric fluid
Protocol: Stability in simulated gastric fluid: A stock solution of fosmetpantotenate or its individual diastereomers was prepared in 0.1% formic acid in methanol. Simulated gastric fluid, pH 1.2, was prepared with 2 g/L sodium chloride, 3.2 g/L of pepsin, and 0.7% (v/v) HCl. Gastric buffer, pH 1.2, was prepared containing 2 g/L sodium chloride and 0.7% (v/v) HCl. An appropriate aliquot of fosmetpantotenate or individual diastereomers to yield an initial concentration of 10 μM was added to both fluids, and samples were mixed at ~25°C on an orbital shaker. Aliquots (50 μL) were taken at 0, 2, and 4 h; added to 150 μL dimethyl sulfoxide (DMSO) containing an analytical internal standard; vortexed; and analyzed immediately by LC-MS/MS.
Bioanalysis for determinations of analyte stability: Samples were analyzed using a benchtop tandem quadrupole detector (TQD) mass spectrometer (Waters Ltd, Centennial Park, Hertfordshire). […] Suitable retention and peak shape with separation of the 2 diastereomers were obtained. The chromatography column was a Phenomenex-Kinetex XB C18 (2.10 x 50 mm; 2.6 μm), with a 0.7 mL/min flow rate and a 2 μL injection volume. […] The gradient was initiated with 20% B and increased linearly, reaching 40% B at 0.6 min, followed by 50% B at 0.8 min and by 95% B at 0.9 min. Conditions were kept isocratic through 1.2 min, returned to starting conditions (20% B) at 1.25 min, and maintained at 20% B through 1.5 min before the next injection. Since fosmetpantotenate is a mixture of diastereomers which are resolved chromatographically, the fosmetpantotenate MRM area corresponds to the sum of the MRM areas of the individual diastereomers.
The percent of compound remaining was determined from the MRM area response in each sample relative to that in the T = 0 samples (normalized for internal standard). Natural log plots of the percent compound remaining over time were used to determine the t½ of compound disappearance using the relationship t½ = -0.693/λ, where λ is the slope of the natural logarithm of the percent compound remaining vs time curve.

[3] = tested on: porcine brain endothelial cell (PBEC) co-culture model; test: In vitro blood-brain barrier permeability (PBEC/rat astrocyte co-culture); settings: in words
Protocol: Permeability studies were performed after 2 days of co-culture with rat astrocytes. […] In each filter used for transport, a paracellular marker was included as an internal control to monitor the integrity of the cell monolayer. The day of the experiment, culture medium was removed and cells on Transwell inserts were pre-incubated for 30 min with Hank's Balanced Salt Solution (HBSS) containing 20 mM Hepes pH 7.4 and 0.1% bovine serum albumin (BSA). […] Aliquots from the basal compartment were taken after 1 h; fluorescence was measured using a fluorescence detector. The permeability coefficient of the total system was calculated as follows: P[cm/s]=Vd×ΔMr/A×Md×Δt Where:
To correct for the contribution of the porous polycarbonate membrane of the filter in the absence of cells, the permeability was also determined for the cell-free system. Contribution of the endothelial cell monolayer to the permeability of the cell and filter system was determined by the following equation: 1/Pe=1/Pt-1/Pf Where the total permeability of the system is denoted as Pt, the cell-free filter as Pf, and the endothelial cell layer alone as Pe. The total resistance of the system towards passage of a substance is composed of 2 resistances in series: that of the cell monolayer and that of the filter; permeability is estimated as 1/resistance [27]. […] Mass balance was determined based on the amount of compound recovered in the donor and receiver chamber at the end of the assay relative to the amount added to the donor chamber at time 0.

## COC(=O)CCNC(=O)[C@H](O)C(C)(C)COP(=O)(N[C@@H](C)C(=O)OC)Oc1ccccc1 (mixture of isomers) [Fosmetpantotenate]
[1]; 1 μM TID, day 1
  change in acetyl tubulin: statistically significant decrease
[1]; 1 μM TID, day 5
  increase in acetyl tubulin: ~ 1.6 fold
[1]; 25 μM
  Tubulin Acetylation (fold of control): 2.32 ± 0.64 fold of control
[1]; 25 µM
  Acetyl tubulin level (fold over vehicle): 1.86 fold over vehicle and 2.77 ± 0.13 fold over vehicle
[1]; 50 μM
  Tubulin Acetylation (fold of control): 3.68 ± 1.13 fold of control
[1]; 50 µM
  Acetyl tubulin level (fold over vehicle): 3.02 fold over vehicle and 3.03 ± 0.05 fold over vehicle and 4.99 ± 0.03 fold over vehicle
[1]; 200 μM
  Tubulin Acetylation (fold of control): 5.12 ± 2.57 fold of control
[1]; Experiment 1, DAY 1
  Acetyl tubulin (quantification): 5352.933 and 4967.69
  Acetyl tubulin Normalized (to actin): 1.0
[1]; Experiment 1, DAY 3
  Acetyl tubulin (quantification): 5869.761 and 6720.347
  Acetyl tubulin Normalized (to actin): 1.2 and 1.5
[1]; Experiment 1, DAY 5
  Acetyl tubulin (quantification): 9323.933 and 10851.882
  Acetyl tubulin Normalized (to actin): 2.0 and 2.1
[1]; Experiment 2, DAY 1
  Acetyl tubulin (quantification): 2820.548 and 2422.355
  Acetyl tubulin Normalized (to actin): 1.1 and 1.0
[1]; Experiment 2, DAY 3
  Acetyl tubulin (quantification): 5646.447 and 4155.426
  Acetyl tubulin Normalized (to actin): 2.6
[1]; Experiment 2, DAY 5
  Acetyl tubulin (quantification): 4976.426 and 5163.962
  Acetyl tubulin Normalized (to actin): 2.2 and 1.9
[2]
  half-life at 10 μM: > 10 h
[3]
  blood-brain barrier permeability classification: permeable
